Measurements: US5384405A, “Process for making N-hydroxyl-2-thio-ouinazolin-4-ones” (Olin Corporation, priority 1994, dated 1995)
Converted amounts (≈) assume the structure as drawn. Like-named read-outs stand apart in the source and are kept apart here.

Legend:
[1] = tested on: Candida albicans; assay: Minimum inhibitory concentration (MIC), serial dilution in broth, Candida albicans; assay type: cell-based; details: 120 h, read-out: MIC, A = Candida albicans
Experimental: (§1) Solutions of the experimental compounds in dimethyl sulfoxide and an aqueous solution of sodium pyrithione were serially diluted in nutrient broth (Tryptic Soy Broth for bacteria and Sabouraud Dextrose Broth for fungi) in microtiter plates. Equal volumes of a broth suspension of bacteria (10^6 CFU/ml) or fungi (10^5 cells or spores/ml) were added to each dilution, and the plates were incubated at 37° C. (bacteria and yeast) or 28° C. (molds). Bacteria, yeast, and molds were incubated two, five, and seven days respectively before determining the highest inhibitory dilution.

[2] = tested on: Aureobasidium pullulans; assay: Minimum inhibitory concentration (MIC), serial dilution in broth, Aureobasidium pullulans; assay type: cell-based; details: 168 h, read-out: MIC, B = Aureobasidium pullulans
Experimental: as §1

[3] = tested on: Aspergillus niger; assay: Minimum inhibitory concentration (MIC), serial dilution in broth, Aspergillus niger; assay type: cell-based; details: 168 h, read-out: MIC, C = Aspergillus niger
Experimental: as §1

[4] = tested on: Fusarium; assay: Minimum inhibitory concentration (MIC), serial dilution in broth, Fusarium; assay type: cell-based; details: 168 h, read-out: MIC, D = Fusarium
Experimental: as §1

[5] = UV stability (photolysis in aqueous solution, immersion well photochemical apparatus); assay type: physicochemical
Experimental: The UV stability of IIa was evaluated using a immersion well photochemical apparatus equipped with a Hanovia 450 Watt medium pressure lamp. An aqueous solution (100 ppm in KH2 PO4 buffer pH=7) was irradiated at 25° C. with air agitation for a period of 110 minutes. The rate of photolysis was monitored by UV spectroscopy. Aliquots were taken through a side port of the apparatus into an amber vial and the absorption at 325 nm was measured. A sodium pyrithione aqueous solution (i.e., sodium OMADINE® biocide) was irradiated similarly for comparative purposes.

[6] = yeast, 37° C., five days, Sabouraud Dextrose Broth
[7] = fungi, Sabouraud Dextrose Broth, molds: 28° C., seven days
[8] = molds: 28° C., seven days, Sabouraud Dextrose Broth

Structure (SMILES)	MIC [1, 6] [µg/mL]	MIC [2, 7] [µg/mL]	MIC [3, 8] [µg/mL]	MIC [4, 8] [µg/mL]	half-life ([5]; first order, 100 ppm in KH2PO4 buffer pH=7, 25° C., 450 Watt medium pressure lamp, absorption at 325 nm, read-out: photodecomposition T1/2) [min]	MIC [4] [µg/mL]	MIC [1] [µg/mL]	MIC [2] [µg/mL]	MIC [3] [µg/mL]	photodecomposition time (decomposed in) ([5]; aqueous solution, same conditions as IIa (pH=7, 25° C., 450 Watt lamp)) [s]
Cn1c(=O)c2ccccc2n(O)c1=S [Compound IIa, 1-HYDROXY-3-METHYL-2-THIOXO-1,2-DIHYDROQUINAZOLINE-4(3H)-ONE]	< 2	< 2	< 2	128 (≈ 615 µM)	55	–	–	–	–	–
O=c1[nH]c(=S)n(O)c2ccccc12 [Compound IIg]	64 (≈ 330 µM)	128 (≈ 659 µM)	1020 (≈ 5270 µM)	512 (≈ 2640 µM)	–	–	–	–	–	–
C=CC(=O)On1c(=S)n(C)c(=O)c2ccccc21 [Compound IIj]	4 (≈ 15.3 µM)	4 (≈ 15.3 µM)	8 (≈ 30.5 µM)	16 (≈ 61 µM)	–	–	–	–	–	–
Cn1c(=O)c2ccccc2n(O)c1=S.[Na] [IIa-Na, 1-hydroxy-3-methyl-2-thioxo-1,2-dihydroquinazoline-4(3H)-one, sodium salt]	–	–	–	–	–	4	–	–	–	–
Cn1c(=O)c2ccc(Cl)cc2n(O)c1=S [IIc]	< 2	< 2	4 (≈ 16.5 µM)	64 (≈ 264 µM)	–	–	–	–	–	–
Cc1ccc2c(c1)c(=O)n(C)c(=S)n2O [IId]	< 2	4 (≈ 18 µM)	< 2	128 (≈ 576 µM)	–	–	–	–	–	–
O=c1c2ccccc2n(O)c(=S)n1-c1ccccc1 [IIe]	16 (≈ 59.2 µM)	16 (≈ 59.2 µM)	32 (≈ 118 µM)	64 (≈ 237 µM)	–	–	–	–	–	–
C=CCn1c(=O)c2ccccc2n(O)c1=S [IIf]	4 (≈ 17.1 µM)	16 (≈ 68.3 µM)	16 (≈ 68.3 µM)	8 (≈ 34.1 µM)	–	–	–	–	–	–
COn1c(=S)n(C)c(=O)c2ccccc21 [IIh]	256 (≈ 1150 µM)	512 (≈ 2300 µM)	512 (≈ 2300 µM)	512 (≈ 2300 µM)	–	–	–	–	–	–
CC(=O)On1c(=S)n(C)c(=O)c2ccccc21 [IIi, 1-ACETOYLOXY-3-METHYL-2-THIOXO-1,2-DIHYDROQUINAZOLINE-4(3H)-ONE]	2 (≈ 7.99 µM)	–	–	–	–	–	–	–	–	–
Cn1c(=O)c2ccccc2n(OC(=O)c2ccccc2)c1=S [IIk]	512 (≈ 1640 µM)	256 (≈ 820 µM)	512 (≈ 1640 µM)	512 (≈ 1640 µM)	–	–	–	–	–	–
C=C(C)C(=O)On1c(=S)n(C)c(=O)c2ccccc21 [IIl]	128 (≈ 463 µM)	4 (≈ 14.5 µM)	32 (≈ 116 µM)	512 (≈ 1850 µM)	–	–	–	–	–	–
Cn1c(=O)c2ccccc2n(OC(=O)O)c1=S [IIm]	4 (≈ 15.9 µM)	8 (≈ 31.7 µM)	8 (≈ 31.7 µM)	16 (≈ 63.4 µM)	–	–	–	–	–	–
CNC(=O)On1c(=S)n(C)c(=O)c2ccccc21 [IIn, 1-N-METHYLCARBAMATE-3-METHYL-2-THIO-1,2-DIHYDROQUINAZOLINE-4(3H)-ONE]	–	–	–	–	–	16 (≈ 60.3 µM)	4 (≈ 15.1 µM)	8 (≈ 30.2 µM)	8 (≈ 30.2 µM)	–
CCOC(=O)c1ccccc1N(O)C(=S)NC [Ib]	8 (≈ 31.5 µM)	8 (≈ 31.5 µM)	8 (≈ 31.5 µM)	128 (≈ 503 µM)	–	–	–	–	–	–
CNC(=S)N(O)c1cc(Cl)ccc1C(=O)OC [Ic]	< 2	4 (≈ 14.6 µM)	8 (≈ 29.1 µM)	128 (≈ 466 µM)	–	–	–	–	–	–
CNC(=S)N(O)c1ccc(C)cc1C(=O)OC [Id]	8 (≈ 31.5 µM)	8 (≈ 31.5 µM)	8 (≈ 31.5 µM)	512 (≈ 2010 µM)	–	–	–	–	–	–
CCOC(=O)c1ccccc1N(O)C(=S)Nc1ccccc1 [Ie]	16 (≈ 50.6 µM)	32 (≈ 101 µM)	64 (≈ 202 µM)	64 (≈ 202 µM)	–	–	–	–	–	–
C=CCNC(=S)N(O)c1ccccc1C(=O)OCC [If]	4 (≈ 14.3 µM)	16 (≈ 57.1 µM)	16 (≈ 57.1 µM)	16 (≈ 57.1 µM)	–	–	–	–	–	–
On1ccccc1=S [sodium pyrithione, reference compound]	–	–	–	–	–	–	–	–	–	15
